Our source for the inhibition values is ChEMBL document CHEMBL3132769, “Fragment growing to retain or alter the selectivity of anchored kinase hinge-binding fragments” (Medchemcomm, 2014).

Assay [1] concerns the target T1, Protein kinase C epsilon type (Homo sapiens) (UniProt Q02156).
T1 sequence (whole entry): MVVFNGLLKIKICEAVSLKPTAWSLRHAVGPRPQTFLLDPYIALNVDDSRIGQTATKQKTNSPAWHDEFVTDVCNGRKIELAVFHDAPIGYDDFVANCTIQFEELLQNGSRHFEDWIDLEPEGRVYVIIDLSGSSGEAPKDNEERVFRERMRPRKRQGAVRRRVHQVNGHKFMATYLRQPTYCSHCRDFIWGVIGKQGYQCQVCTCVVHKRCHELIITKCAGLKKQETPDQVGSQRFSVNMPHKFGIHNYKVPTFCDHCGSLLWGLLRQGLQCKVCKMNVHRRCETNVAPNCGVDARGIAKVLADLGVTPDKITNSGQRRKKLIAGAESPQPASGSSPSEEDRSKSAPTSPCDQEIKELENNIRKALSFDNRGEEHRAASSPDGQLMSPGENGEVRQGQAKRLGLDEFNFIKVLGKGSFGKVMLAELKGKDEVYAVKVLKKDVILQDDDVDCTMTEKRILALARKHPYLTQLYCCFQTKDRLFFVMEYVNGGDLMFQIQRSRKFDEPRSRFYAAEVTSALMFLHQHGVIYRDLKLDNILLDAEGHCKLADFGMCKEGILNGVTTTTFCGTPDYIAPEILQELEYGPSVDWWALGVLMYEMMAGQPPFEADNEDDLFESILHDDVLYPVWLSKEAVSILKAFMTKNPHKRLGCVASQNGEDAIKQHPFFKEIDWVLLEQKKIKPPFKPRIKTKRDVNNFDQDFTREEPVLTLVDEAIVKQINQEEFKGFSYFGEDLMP
Kind of assay: Inhibition of human truncated PKC epsilon expressed in baculovirus assessed as substrate phosphorylation using fluorescence-labelled peptides as substrate at 8 uM after 90 mins by microfluidic peptide phosphorylation assay.

The target of assay [2] is Vascular endothelial growth factor receptor 2 (Homo sapiens) (UniProt P35968). Briefly: Inhibition of human KDR cytoplasmic domain expressed in baculovirus assessed as substrate phosphorylation using fluorescence-labelled peptides as substrate at 420 uM after 90 mins by microfluidic peptide phosphorylation assay.
For assay [3], the target named is Cyclin-dependent kinase 2 (Homo sapiens) (UniProt P24941). Kind of assay: Inhibition of human full length CDK2 expressed in baculovirus assessed as substrate phosphorylation using fluorescence-labelled peptides as substrate at 0.2 uM after 90 mins by microfluidic peptide phosphorylation assay.
Assay [4] addresses Receptor-type tyrosine-protein kinase FLT3 (Homo sapiens) (UniProt P36888). Briefly: Inhibition of human FLT3 catalytic domain expressed in baculovirus assessed as substrate phosphorylation using fluorescence-labelled peptides as substrate at 9 uM after 90 mins by microfluidic peptide phosphorylation assay.
Assay [5] concerns the target Protein kinase C delta type (Homo sapiens) (UniProt Q05655). Briefly: Inhibition of human truncated PKC delta expressed in baculovirus assessed as substrate phosphorylation using fluorescence-labelled peptides as substrate at 9 uM after 90 mins by microfluidic peptide phosphorylation assay.
Assay [6] concerns the target Fibroblast growth factor receptor 2 (Homo sapiens) (UniProt P21802). Kind of assay: Inhibition of human FGFR2 catalytic domain expressed in baculovirus assessed as substrate phosphorylation using fluorescence-labelled peptides as substrate at 70 uM after 90 mins by microfluidic peptide phosphorylation assay.
Assay [7] concerns Fibroblast growth factor receptor 2 (Homo sapiens), P21802 [N549H]. Briefly: Inhibition of human FGFR2 N549H mutant catalytic domain expressed in baculovirus assessed as substrate phosphorylation using fluorescence-labelled peptides as substrate at 70 uM after 90 mins by microfluidic peptide phosphorylation assay.
Assay [8] concerns the target RAC-alpha serine/threonine-protein kinase (Homo sapiens) (UniProt P31749). Briefly: Inhibition of human AKT1 catalytic domain expressed in baculovirus assessed as substrate phosphorylation using fluorescence-labelled peptides as substrate at 70 uM after 90 mins by microfluidic peptide phosphorylation assay.
Assay [9] concerns the target Casein kinase I isoform delta (Homo sapiens) (UniProt P48730). Briefly: Inhibition of human CK1D catalytic domain expressed in Escherichia coli cell assessed as substrate phosphorylation using fluorescence-labelled peptides as substrate at 2 uM after 90 mins by microfluidic peptide phosphorylation assay.
Assay [10] concerns the target T2, Aurora kinase A (Homo sapiens) (UniProt O14965).
T2 sequence (whole entry): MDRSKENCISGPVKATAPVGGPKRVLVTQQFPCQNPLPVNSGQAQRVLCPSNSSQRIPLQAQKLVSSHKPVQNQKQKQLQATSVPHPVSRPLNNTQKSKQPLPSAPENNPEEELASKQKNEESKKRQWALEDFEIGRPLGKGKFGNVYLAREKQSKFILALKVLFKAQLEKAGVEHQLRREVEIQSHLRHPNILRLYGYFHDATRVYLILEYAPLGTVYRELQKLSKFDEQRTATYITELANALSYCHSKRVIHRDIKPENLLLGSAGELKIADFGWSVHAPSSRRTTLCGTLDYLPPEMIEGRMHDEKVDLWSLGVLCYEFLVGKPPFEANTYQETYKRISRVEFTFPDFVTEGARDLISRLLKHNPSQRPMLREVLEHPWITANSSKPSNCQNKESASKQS
Kind of assay: Inhibition of human full length AurA expressed in baculovirus assessed as substrate phosphorylation using fluorescence-labelled peptides as substrate at 2 uM after 90 mins by microfluidic peptide phosphorylation assay.

Assay [11] addresses Insulin-like growth factor 1 receptor (Homo sapiens) (UniProt P08069). Kind of assay: Inhibition of human IGF1R catalytic domain expressed in baculovirus assessed as substrate phosphorylation using fluorescence-labelled peptides as substrate at 1000 uM after 90 mins by microfluidic peptide phosphorylation assay.
Assay [12] deals with T1, Protein kinase C epsilon type (Homo sapiens). Kind of assay: Inhibition of human truncated PKC epsilon expressed in baculovirus assessed as substrate phosphorylation using fluorescence-labelled peptides as substrate at 1000 uM after 90 mins by microfluidic peptide phosphorylation assay.

Chain of RAC-alpha serine/threonine-protein kinase (Homo sapiens) (P31749 whole entry, the tested form may be a part, canonical isoform): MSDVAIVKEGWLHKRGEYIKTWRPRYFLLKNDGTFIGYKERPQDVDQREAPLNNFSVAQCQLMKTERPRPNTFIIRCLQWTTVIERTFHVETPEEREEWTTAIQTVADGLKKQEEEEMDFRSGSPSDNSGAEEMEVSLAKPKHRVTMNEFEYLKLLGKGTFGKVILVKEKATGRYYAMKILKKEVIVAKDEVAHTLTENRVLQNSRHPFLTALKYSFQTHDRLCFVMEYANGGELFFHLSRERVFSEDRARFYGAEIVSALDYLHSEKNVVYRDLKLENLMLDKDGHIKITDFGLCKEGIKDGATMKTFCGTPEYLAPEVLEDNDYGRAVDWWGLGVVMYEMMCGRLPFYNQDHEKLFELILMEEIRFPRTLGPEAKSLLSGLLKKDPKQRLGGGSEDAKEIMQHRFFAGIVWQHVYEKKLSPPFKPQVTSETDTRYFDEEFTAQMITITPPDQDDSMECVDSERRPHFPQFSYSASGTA
Chain of Vascular endothelial growth factor receptor 2 (Homo sapiens) (P35968 whole entry, the tested form may be a part): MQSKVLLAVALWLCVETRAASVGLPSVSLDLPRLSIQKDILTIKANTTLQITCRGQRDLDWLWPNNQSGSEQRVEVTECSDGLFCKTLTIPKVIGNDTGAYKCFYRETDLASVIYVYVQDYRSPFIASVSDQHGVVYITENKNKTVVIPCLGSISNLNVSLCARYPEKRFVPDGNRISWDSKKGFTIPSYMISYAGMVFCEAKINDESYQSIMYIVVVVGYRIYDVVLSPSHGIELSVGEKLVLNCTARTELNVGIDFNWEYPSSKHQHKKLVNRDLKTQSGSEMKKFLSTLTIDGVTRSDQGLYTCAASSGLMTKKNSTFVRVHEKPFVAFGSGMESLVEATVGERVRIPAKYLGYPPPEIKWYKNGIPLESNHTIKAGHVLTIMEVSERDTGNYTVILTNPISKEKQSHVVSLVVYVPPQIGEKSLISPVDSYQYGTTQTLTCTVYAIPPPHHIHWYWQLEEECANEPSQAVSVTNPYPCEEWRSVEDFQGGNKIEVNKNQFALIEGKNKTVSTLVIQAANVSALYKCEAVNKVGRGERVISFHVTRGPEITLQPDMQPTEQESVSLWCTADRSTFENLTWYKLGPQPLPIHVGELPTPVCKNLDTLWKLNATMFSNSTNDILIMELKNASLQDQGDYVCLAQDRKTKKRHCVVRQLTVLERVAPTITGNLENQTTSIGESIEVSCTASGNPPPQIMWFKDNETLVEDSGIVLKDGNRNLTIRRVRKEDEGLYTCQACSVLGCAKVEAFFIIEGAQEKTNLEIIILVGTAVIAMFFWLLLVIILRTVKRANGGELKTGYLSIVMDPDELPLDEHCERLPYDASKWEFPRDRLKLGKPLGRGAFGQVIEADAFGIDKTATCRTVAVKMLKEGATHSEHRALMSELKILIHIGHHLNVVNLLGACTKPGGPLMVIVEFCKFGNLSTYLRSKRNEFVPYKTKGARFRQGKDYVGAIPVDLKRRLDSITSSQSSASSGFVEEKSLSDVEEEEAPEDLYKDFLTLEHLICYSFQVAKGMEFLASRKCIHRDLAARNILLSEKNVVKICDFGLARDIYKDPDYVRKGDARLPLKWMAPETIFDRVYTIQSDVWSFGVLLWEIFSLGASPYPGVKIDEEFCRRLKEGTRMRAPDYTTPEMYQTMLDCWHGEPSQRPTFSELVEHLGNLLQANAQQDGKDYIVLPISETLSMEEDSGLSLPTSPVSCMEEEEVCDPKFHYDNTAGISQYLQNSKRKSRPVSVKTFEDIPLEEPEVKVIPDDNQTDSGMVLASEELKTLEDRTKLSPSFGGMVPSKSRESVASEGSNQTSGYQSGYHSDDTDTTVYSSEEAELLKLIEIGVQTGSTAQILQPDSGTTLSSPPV
Chain of Receptor-type tyrosine-protein kinase FLT3 (Homo sapiens) (P36888 whole entry, the tested form may be a part): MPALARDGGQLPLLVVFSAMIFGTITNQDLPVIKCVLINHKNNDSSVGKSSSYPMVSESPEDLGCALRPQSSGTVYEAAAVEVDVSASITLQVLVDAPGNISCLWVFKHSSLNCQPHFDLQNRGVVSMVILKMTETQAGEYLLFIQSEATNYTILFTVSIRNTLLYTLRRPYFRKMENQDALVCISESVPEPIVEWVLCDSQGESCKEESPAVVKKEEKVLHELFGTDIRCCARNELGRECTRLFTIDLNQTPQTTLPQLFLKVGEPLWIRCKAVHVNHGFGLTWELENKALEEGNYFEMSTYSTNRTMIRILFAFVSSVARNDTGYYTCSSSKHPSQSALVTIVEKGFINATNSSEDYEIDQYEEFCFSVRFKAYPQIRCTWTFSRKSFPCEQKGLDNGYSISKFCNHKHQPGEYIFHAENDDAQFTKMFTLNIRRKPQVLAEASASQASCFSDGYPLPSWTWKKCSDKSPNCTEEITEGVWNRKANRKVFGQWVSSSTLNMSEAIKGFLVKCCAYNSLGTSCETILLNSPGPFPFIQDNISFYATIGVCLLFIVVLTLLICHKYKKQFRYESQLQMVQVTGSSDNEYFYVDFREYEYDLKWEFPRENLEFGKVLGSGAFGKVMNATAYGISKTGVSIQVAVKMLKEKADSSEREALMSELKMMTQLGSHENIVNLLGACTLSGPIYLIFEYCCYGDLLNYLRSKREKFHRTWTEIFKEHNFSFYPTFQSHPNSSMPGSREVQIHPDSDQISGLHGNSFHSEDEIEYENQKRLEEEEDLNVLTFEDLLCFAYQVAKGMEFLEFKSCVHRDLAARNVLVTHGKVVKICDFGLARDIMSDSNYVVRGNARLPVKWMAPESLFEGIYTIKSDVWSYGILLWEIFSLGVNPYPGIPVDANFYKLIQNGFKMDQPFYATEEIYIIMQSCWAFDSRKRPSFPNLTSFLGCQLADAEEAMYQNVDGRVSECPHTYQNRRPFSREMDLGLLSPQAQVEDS
Chain of Casein kinase I isoform delta (Homo sapiens) (P48730 whole entry, looked up, the tested form may be a part, canonical isoform): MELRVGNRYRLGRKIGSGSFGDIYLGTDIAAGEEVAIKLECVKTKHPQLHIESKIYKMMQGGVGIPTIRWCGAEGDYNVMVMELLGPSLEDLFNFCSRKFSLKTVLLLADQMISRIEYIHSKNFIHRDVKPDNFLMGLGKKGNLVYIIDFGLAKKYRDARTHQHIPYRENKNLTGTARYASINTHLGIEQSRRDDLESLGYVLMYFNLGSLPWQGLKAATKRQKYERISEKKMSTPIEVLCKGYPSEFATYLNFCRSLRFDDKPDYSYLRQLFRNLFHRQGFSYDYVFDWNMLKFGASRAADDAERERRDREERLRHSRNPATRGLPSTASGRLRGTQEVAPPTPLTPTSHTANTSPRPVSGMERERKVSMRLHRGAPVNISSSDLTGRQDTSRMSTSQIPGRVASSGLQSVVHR
Chain of Fibroblast growth factor receptor 2 (Homo sapiens) (P21802 22-821 limits assumed): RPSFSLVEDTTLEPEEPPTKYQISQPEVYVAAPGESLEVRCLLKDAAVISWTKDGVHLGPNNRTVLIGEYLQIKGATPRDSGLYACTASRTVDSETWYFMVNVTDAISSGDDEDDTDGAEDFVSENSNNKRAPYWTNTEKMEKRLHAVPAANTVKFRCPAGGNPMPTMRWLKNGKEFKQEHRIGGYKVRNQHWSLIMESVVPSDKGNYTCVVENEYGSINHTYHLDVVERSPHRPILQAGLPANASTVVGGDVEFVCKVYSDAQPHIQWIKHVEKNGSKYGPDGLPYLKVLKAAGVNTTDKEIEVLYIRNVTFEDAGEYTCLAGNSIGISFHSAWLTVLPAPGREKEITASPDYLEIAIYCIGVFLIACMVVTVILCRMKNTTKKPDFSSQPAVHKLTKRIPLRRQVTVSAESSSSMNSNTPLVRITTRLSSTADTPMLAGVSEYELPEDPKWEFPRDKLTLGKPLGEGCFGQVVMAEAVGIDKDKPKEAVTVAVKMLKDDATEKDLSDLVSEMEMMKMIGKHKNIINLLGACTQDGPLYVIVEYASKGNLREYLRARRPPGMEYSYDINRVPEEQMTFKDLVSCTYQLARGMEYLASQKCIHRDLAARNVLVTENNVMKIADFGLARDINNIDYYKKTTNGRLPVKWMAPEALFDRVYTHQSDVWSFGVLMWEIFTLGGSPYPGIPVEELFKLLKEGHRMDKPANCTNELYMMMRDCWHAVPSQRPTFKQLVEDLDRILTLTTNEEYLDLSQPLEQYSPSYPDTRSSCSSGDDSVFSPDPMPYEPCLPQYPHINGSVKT
Chain of Protein kinase C delta type (Homo sapiens) (Q05655 whole entry, looked up, the tested form may be a part): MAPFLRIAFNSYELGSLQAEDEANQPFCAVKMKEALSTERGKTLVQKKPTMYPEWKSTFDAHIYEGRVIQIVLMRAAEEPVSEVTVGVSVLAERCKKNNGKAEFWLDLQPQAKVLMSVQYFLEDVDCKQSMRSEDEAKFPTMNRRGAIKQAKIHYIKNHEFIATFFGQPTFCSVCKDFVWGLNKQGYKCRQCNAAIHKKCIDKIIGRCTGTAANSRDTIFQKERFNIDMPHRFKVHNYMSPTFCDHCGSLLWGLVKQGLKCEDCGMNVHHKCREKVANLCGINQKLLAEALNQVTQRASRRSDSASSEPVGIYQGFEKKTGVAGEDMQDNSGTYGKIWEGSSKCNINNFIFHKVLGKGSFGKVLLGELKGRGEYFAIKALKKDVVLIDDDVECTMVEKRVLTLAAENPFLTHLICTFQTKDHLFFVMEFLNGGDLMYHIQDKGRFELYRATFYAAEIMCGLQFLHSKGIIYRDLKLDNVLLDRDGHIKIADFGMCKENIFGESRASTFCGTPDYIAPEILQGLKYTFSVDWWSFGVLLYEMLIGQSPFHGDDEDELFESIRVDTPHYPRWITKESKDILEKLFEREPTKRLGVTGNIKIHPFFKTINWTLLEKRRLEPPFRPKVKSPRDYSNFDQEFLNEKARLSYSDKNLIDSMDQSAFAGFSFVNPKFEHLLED

As for `NCC1CCN(c2ncnc3[nH]ccc23)CC1`, in [1], the inhibition stood at 34%.

`c1nc(N2CCOCC2)c2nc[nH]c2n1`: in assay [2], the inhibition came out at 95.5%.

`Clc1ccc(C2(c3ccc(-c4ncnc5[nH]cnc45)cc3)CCNCC2)cc1`: the inhibition in assay [3] stood at 7.5%.

As for `NCC1CN(c2ncnc3[nH]c4cnccc4c23)CCO1` (configuration not stated), the inhibition came out at 89.5% in [4] and 37.5% in assay [5].

On to `CNCc1ccc(-c2ncnc3[nH]cnc23)cc1`, for which the values for the inhibition in [6], in assay [7] and in assay [8] were 27%, 35.5% and 64.5%, respectively.

For the molecule `NC1CCN(c2ncnc3[nH]ccc23)CC1`, the inhibition in assay [9] amounted to 0%; in assay [10], 64.5%.

On to `c1cnc2[nH]ccc2c1`, for which the results for the inhibition in assay [11] and in assay [12] were 51.5% and 38%, respectively.
